These results are taken from patent US20090197900A1, “METHODS OF TREATING HEART FAILURE AND RENAL DYSFUNCTION IN INDIVIDUALS WITH AN ADENOSINE A1 RECEPTOR ANTAGONIST” (priority 2007, published 2009).

The subject of the test is subjects with acute CHF and renal impairment having BNP levels above 500 pg/mL. The test can be described thus: Separate analysis of the Example 1 trial for subjects with BNP levels exceeding 500 pg/mL (BNP subgroup). It counts as in vivo, human. Particulars: 30 mg KW-3902, FIG. 14. As to the method:
More than 300 subjects hospitalized due to acute CHF requiring intravenous diuretic therapy to treat fluid overload, and presenting with creatinine clearance values between 20 to 80 mL/min were identified. The subjects were randomized to receive either placebo, or 10 mg, 20 mg or 30 mg intravenous KW-3902 per day. The subjects' BNP levels, NT-Pro-BNP, serum creatinine, weight, and NYHA Class were measured.
On day 1, KW-3902 (or placebo) was co-administered with intravenous furosemide (LASIX™). The specified dose of KW-3902 (or placebo) was infused over a four hour time period. Subjects received therapy for up to three days. Serum creatinine, weight, dyspnea, and worsening heart failure were assessed daily by the investigator on days 1 through 14. Worsening heart failure was investigator determined and required an increase in dose or reinstitution of LASIX, mechanical respiratory or circulatory assist measures, administration of intravenous positive […], or administration of intravenous vasodilators.
To compare the therapeutic effect of KW-3902 on individuals with different levels of BNP and or NT-Pro-BNP, the results of the trial discussed in Example 1 were separately analyzed to distinguish subjects with BNP levels exceeding 500 pg/mL. Approximately 75% of the subjects described in Example 1 fell within the subgroup having BNP levels above 500 pg/mL. […]

`CCCn1c(=O)c2[nH]c(C34CC5CC(CC3C5)C4)nc2n(CCC)c1=O` [KW-3902, 8-(3-noradamantyl)-1,3-dipropylxanthine]: the “individuals characterized as modified "Success"” value is given as “greater than 65%”.
